Source: patent US12247004B2, “2-amino-N-(amino-oxo-aryl-lambda6-sulfanylidene)acetamide compounds and their therapeutic use” (Oxford Drug Design Limited, priority 2019, dated 2025)
In brackets after ≈: the same amount, converted by molar mass. Structures can show the parent of a compound that is named as a salt. Where two headings read alike, the source gives them in different places.

Columns and labels:
[1] = target: Leucyl-tRNA synthetase (LeuRS) (Escherichia coli (strain K12), UniProt P07813); assay: Leucyl-tRNA synthetase enzyme inhibition (AMP-Glo; single point % inhibition at 100 μM and IC50); type: biochemical
[2] = Human cell viability / cytotoxicity (CellTiter-Glo, 24 hours); type: cell-based; settings: human, HepG2 cells (ATCC HB-8065); HepG2 ATCC HB-8065, 24 hours; read-out: Cytotoxicity in HepG2 ATCC HB-8065 Cell Line, IC50
Experimental: Study 3—Human Cell Viability
Compounds were assessed for potential non-specific cytotoxic effects against a human hepatic cell line (HepG2 ATCC HB-8065). 96-well plates were seeded with HepG2 cells in concentration of 15,000 cells per well in 100 μL of MEM growth media completed with 1% NEAA and 1% sodium pyruvate. Border wells were filled with 100 μL of sterile PBS. Two days upon cells incubation, the compounds were added. Compound dilutions were prepared in 96-well V-bottom plate in pure DMSO. Growth media from 5 plates were aspirated and replaced with 98.7 μL of fresh growth media. 1.28 μL of compounds prepared in V-bottom plates were transferred with multichannel pipette into test plates (78.1× dilution). Final DMSO concentration was 1.28% per well. In control wells, 1.28 μL of DMSO was added in 98.7 μL of media. Compounds were tested in duplicates. Cells were incubated with compounds for 24 hours when cell viability was assessed by measuring ATP levels. ATP levels were measured by adding 50 μL of CellTiter-Glo reagent to each well and after 5 minutes of incubation luminescence was measured with SpectraMax i3. The potential effect of tested compounds on cell viability was determined by comparing the signal obtained in presence of different concentrations of the compounds with those obtained in the presence of DMSO only. The potential effects were then calculated and presented as IC50 values (μg/mL).

[3] = test system: bacteria (ATCC reference strains); assay: Antibacterial activity, MIC by broth micro-dilution (CLSI)
[4] = E. coli LeuRS, read-out: Enzyme Inhibition - IC50, E. coli LeuRS
[5] = Acinetobacter baumannii, read-out: Antibacterial Activity (MIC), E = A. baumannii B1931
[6] = Enterobacter cloacae, read-out: Antibacterial Activity (MIC), B = Enterobacter cloacae B1966
[7] = Escherichia coli, ATCC25922, read-out: Antibacterial Activity (MIC), A = E. coli ATCC 25922
[8] = Haemophilus influenzae, ATCC49247, read-out: Antibacterial Activity (MIC), F = H. influenzae ATCC 49247
[9] = Klebsiella pneumoniae, ATCC700603, read-out: Antibacterial Activity (MIC), C = K. pneumoniae ATCC 700603
[10] = Pseudomonas aeruginosa, ATCC27853, read-out: Antibacterial Activity (MIC), D = P. aeruginosa ATCC 27853
[11] = Escherichia coli, BAA2469, read-out: Antibacterial Activity (MIC), G = E. coli BAA-2469

Chain of Leucyl-tRNA synthetase (LeuRS) (P07813 whole entry, looked up): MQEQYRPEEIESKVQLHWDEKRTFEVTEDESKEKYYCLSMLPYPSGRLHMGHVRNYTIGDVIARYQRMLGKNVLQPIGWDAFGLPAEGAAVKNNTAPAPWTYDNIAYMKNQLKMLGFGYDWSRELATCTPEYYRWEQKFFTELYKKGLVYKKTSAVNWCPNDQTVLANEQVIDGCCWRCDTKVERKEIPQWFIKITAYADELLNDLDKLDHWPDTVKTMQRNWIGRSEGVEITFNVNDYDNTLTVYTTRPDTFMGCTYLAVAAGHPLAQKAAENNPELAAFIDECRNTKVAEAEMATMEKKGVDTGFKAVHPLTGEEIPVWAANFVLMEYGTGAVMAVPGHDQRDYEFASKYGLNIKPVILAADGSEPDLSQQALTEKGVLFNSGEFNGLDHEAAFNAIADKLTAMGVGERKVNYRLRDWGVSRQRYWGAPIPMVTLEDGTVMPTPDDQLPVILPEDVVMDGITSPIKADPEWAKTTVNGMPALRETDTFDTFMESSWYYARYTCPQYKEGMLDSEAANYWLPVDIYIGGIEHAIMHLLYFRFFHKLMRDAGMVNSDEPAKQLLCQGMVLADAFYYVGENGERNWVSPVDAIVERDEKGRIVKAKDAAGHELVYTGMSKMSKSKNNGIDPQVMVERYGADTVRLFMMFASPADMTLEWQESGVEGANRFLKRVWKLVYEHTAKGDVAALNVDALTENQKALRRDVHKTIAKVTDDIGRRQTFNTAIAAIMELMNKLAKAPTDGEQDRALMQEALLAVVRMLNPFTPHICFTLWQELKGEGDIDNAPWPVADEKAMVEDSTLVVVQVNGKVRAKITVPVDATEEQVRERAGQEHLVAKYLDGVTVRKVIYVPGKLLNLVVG

SMILES	IC50 [1, 4] [nM]	IC50 at 24 h [2] [µg/mL]	MIC [3, 5] [µg/mL]	MIC [3, 6] [µg/mL]	MIC [3, 7] [µg/mL]	MIC [3, 8] [µg/mL]	MIC [3, 9] [µg/mL]	MIC [3, 10] [µg/mL]	IC50 [1] [nM]	MIC [3, 11] [µg/mL]
CC(C)C[C@H](N)C(=O)N=S(N)(=O)c1cccc(Cl)c1F (stereo partly drawn) [ANASIA-001, (2S)-2-amino-N-(amino(3-chloro-2-fluorophenyl)(oxo)-λ6-sulfanylidene)-4-methylpentanamide 2,2,2-trifluoroacetate]	429	> 64	> 64	> 64	32 (≈ 99.4 µM)	> 64	> 64	> 64	–	–
CC(C)C[C@H](N)C(=O)N=[S@](N)(=O)c1cccc(Cl)c1F.Cl [ANASIA-001-1]	–	> 64	> 64	> 64	16	32	> 64	> 64	535	–
CC(C)C[C@H](N)C(=O)N=[S@](N)(=O)c1cccc(Cl)c1.Cl [ANASIA-002-1]	–	> 64	32	8	1	2	32	> 64	27.5	4
CC(C)C[C@H](N)C(=O)N=[S@@](N)(=O)c1cccc(Cl)c1.Cl [ANASIA-002-2]	1050	> 64	> 64	> 64	64	> 64	> 64	> 64	–	–
CC(C)C[C@H](N)C(=O)N=S(N)(=O)c1cccc(Cl)c1 (stereo partly drawn) [ANASIA-002]	110	> 64	> 45.3	> 45.3	2.83 (≈ 9.31 µM)	5.66 (≈ 18.6 µM)	> 22.6	> 64	–	–
CC(C)C[C@H](N)C(=O)N=[S@](N)(=O)c1ccccc1.Cl [ANASIA-003-1, (S)-2-amino-N—((S)-amino(oxo)(phenyl)-λ6-sulfanylidene)-4-methylpentanamide hydrochloride]	61.5	> 64	64	16	4	8	16	64	–	–
CC(C)C[C@H](N)C(=O)N=S(N)(=O)c1ccccc1 (stereo partly drawn) [ANASIA-003]	92.9	> 64	32 (≈ 119 µM)	16 (≈ 59.4 µM)	2.83 (≈ 10.5 µM)	16 (≈ 59.4 µM)	8 (≈ 29.7 µM)	50.8 (≈ 189 µM)	–	–
Cc1csc(S(N)(=O)=NC(=O)[C@@H](N)CC(C)C)n1 (stereo partly drawn) [ANASIA-004, (2S)-2-amino-N-(amino(4-methylthiazol-2-yl)(oxo)-λ6-sulfanylidene)-4-methyl pentanamide hydrochloride]	91.6	> 64	64	> 64	16	8	> 64	64	–	–
Cc1cccc([S@](N)(=O)=NC(=O)[C@@H](N)CC(C)C)c1 [ANASIA-005-2]	151	> 64	> 64	64 (≈ 226 µM)	8 (≈ 28.2 µM)	16 (≈ 56.5 µM)	> 64	> 64	–	32 (≈ 113 µM)
Cc1cccc(S(N)(=O)=NC(=O)[C@@H](N)CC(C)C)c1 (stereo partly drawn) [ANASIA-005]	381	> 64	64 (≈ 226 µM)	32 (≈ 113 µM)	8 (≈ 28.2 µM)	32 (≈ 113 µM)	32 (≈ 113 µM)	> 64	–	–
CC(C)C[C@H](N)C(=O)N=S(N)(=O)c1cccnc1 (stereo partly drawn) [ANASIA-006]	708	> 64	> 64	> 64	64 (≈ 237 µM)	> 64	> 64	> 64	–	–
CC(C)C[C@H](N)C(=O)N=[S@](N)(=O)c1ccsc1.Cl [ANASIA-008-1]	–	> 64	32	8	2	4	8	32	30.6	–
CC(C)C[C@H](N)C(=O)N=S(N)(=O)c1ccsc1 (stereo partly drawn) [ANASIA-008]	144	> 64	32 (≈ 116 µM)	16 (≈ 58.1 µM)	2 (≈ 7.26 µM)	16 (≈ 58.1 µM)	8 (≈ 29 µM)	32 (≈ 116 µM)	–	–
CC(C)C[C@H](N)C(=O)N=[S@@](N)(=O)c1ccc(Cl)s1 [ANASIA-009-2]	149	> 64	64 (≈ 207 µM)	32 (≈ 103 µM)	4 (≈ 12.9 µM)	8 (≈ 25.8 µM)	32 (≈ 103 µM)	> 64	–	–
CC(C)C[C@H](N)C(=O)N=[S@](N)(=O)c1sccc1Cl.Cl [ANASIA-012-1]	–	> 64	64	32	4	8	64	> 64	87.4	16
CC(C)C[C@H](N)C(=O)N=S(N)(=O)c1sccc1Cl (stereo partly drawn) [ANASIA-012]	155	> 64	> 64	64 (≈ 207 µM)	8 (≈ 25.8 µM)	16 (≈ 51.6 µM)	> 64	> 64	–	32 (≈ 103 µM)
Cc1ccc([S@@](N)(=O)=NC(=O)[C@@H](N)CC(C)C)s1.Cl [ANASIA-014-1]	–	> 64	64	16	4	4	64	> 64	81.1	–
Cc1ccsc1[S@@](N)(=O)=NC(=O)[C@@H](N)CC(C)C.Cl [ANASIA-015-1]	–	> 64	64	16	2	8	16	64	56.5	5.66
CC(C)C[C@H](N)C(=O)N=S(N)(=O)c1ccc(C(F)F)s1 (stereo partly drawn) [ANASIA-017]	–	> 64	> 64	> 64	16 (≈ 49.2 µM)	8 (≈ 24.6 µM)	> 64	> 64	145	–
CC(C)C[C@H](N)C(=O)N=[S@](N)(=O)c1cccc(-c2cccc(F)c2)c1 [ANASIA-051-1, (S)-2-amino-N—((S)-amino(3′-fluoro-[1,1′-biphenyl]-3-yl)(oxo)-λ6-sulfanylidene)-4-methylpentanamide hydrochloride]	–	> 64	–	–	–	–	–	–	601	–
